Results reported in ChEMBL document CHEMBL1151116, “In vitro study of the anticholinergic and antihistaminic activities of protopine and some derivatives” (J Nat Prod, 1988).

Tests used:
Ileum [1] = assay: Inhibition of acetylcholine-induced contraction in guinea pig ileum preincubated for 5 mins before acetylcholine challenge; type: functional, tissue-based, Cavia porcellus
Ileum [2] = assay: Inhibition of acetylcholine-induced contraction in guinea pig ileum at 0.28 to 2.8 uM preincubated for 5 mins before acetylcholine challenge; type: functional, Cavia porcellus; parameters: scale not given: the % may be the effect or the level left

`CN1[C@@H]2CC[C@H]1C[C@@H](OC(=O)C(CO)c1ccccc1)C2` (stereo partly drawn) [ATROPINE] was tested, and the Kb (Ileum [1]; Cavia porcellus, Ileum, read-out: pA2 (converted)) was 2.04 nM.

With `C[N+]1([O-])CCc2cc3c(cc2C(=O)Cc2ccc4c(c2C1)OCO4)OCO3` (stereo not drawn) the Activity (Ileum [2]) was 20%.

In the case of `COc1ccc(Cc2nccc3cc(OC)c(OC)cc23)cc1OC` [PAPAVERINE], the pD2 (Ileum [1]) is reported as 5.08.
